Laboratory results from the CombiSolv-Exp solvation set (Vermeire and Green 2021).

Assay: solvent given as SMILES

Cc1ccc2cc(C)ccc2c1
Settings	solvation free energy, 298 K [kcal/mol]
in CCCCCCCCC=CCCCCCCCC(=O)OCC(COC(=O)CCCCCCCC=CCCCCCCCC)OC(=O)CCCCCCCC=CCCCCCCCC	-8.29
in CCCCCCCO	-8.28
in CCCCCCO	-8.36
in CCCCCO	-8.49
in CCCCO	-8.59
in CCO	-8.85
in O	-2.37

CCCC
Settings	solvation free energy, 298 K [kcal/mol]
in C1CCC2CCCCC2C1	-2.25
in C1COCCO1	-2.13
in CC1COC(=O)O1	-1.19
in CC#N	-1.49
in CC(=O)N(C)C	-1.75
in CC(C)(C)O	-2.07
in CC(C)=O	-2.13
in CC(C)CCO	-2.02
in CC(C)CO	-2.03
in CC(C)O	-2.03
in CC(CC(C)(C)C)CC(C)(C)CC(C)(C)C	-2.97
in CCC(C)(C)O	-2.16
in CCC(C)=O	-2.31
in CCC(C)CO	-2.03
in CCC(O)CC	-2.07
in CCCC(C)O	-2.03
in CCCCC	-2.61
in CCCCCC	-2.55
in CCCCCCC	-2.54
in CCCCCCCC	-2.49
in CCCCCCCCC	-2.43
in CCCCCCCCCC	-2.43
in CCCCCCCCCCCC	-2.32
in CCCCCCCCCCCCC	-2.31
in CCCCCCCCCCCCCC	-2.23
in CCCCCCCCCCCCCCC	-2.24
in CCCCCCCCCCCCCCCC	-2.21
in CCCCCCCCO	-2.09
in CCCCCCCO	-1.96
in CCCCCO	-2.03
in CCCCO	-1.87
in CCCCOCCCC	-2.44
in CCCO	-1.98
in CCO	-1.91
in CN1CCCC1=O	-1.56
in CN(C)C=O	-1.47
in CN(C)P(=O)(N(C)C)N(C)C	-1.85
in CO	-1.73
in COC(C)=O	-1.95
in COCCOCCO	-1.36
in COCCOCCOC	-1.89
in COCCOCCOCCOC	-1.64
in COCCOCCOCCOCCOC	-1.62
in CS(C)=O	-0.99
in Cc1ccc(C)cc1	-2.33
in Cc1cccc(C)c1	-2.34
in Cc1ccccc1C	-2.31
in ClC(Cl)(Cl)Cl	-2.67
in Clc1ccccc1	-2.32
in Ic1ccccc1	-2.05
in N#Cc1ccccc1	-1.93
in NC=O	-0.12
in Nc1ccccc1	-1.4
in O	2.07
in O=CN1CCOCC1	-0.91
in OC1CCCCC1	-1.8
in OCCCOCCCO	-1.24
in OCCO	-0.29
in OCc1ccccc1	-1.51
in c1ccccc1	-2.39

c1ccc2c(c1)cc1ccc3cccc4ccc2c1c34
Settings	solvation free energy, 298 K [kcal/mol]
in CCCCCCCCC=CCCCCCCCC(=O)OCC(COC(=O)CCCCCCCC=CCCCCCCCC)OC(=O)CCCCCCCC=CCCCCCCCC	-16.7

O=C(O)Cc1cccc(Cl)c1
Settings	solvation free energy, 298 K [kcal/mol]
in O	-8.39

Cc1ccccc1N
Settings	solvation free energy, 298 K [kcal/mol]
in CC(C)CC(C)(C)C	-6.37
in CCCCCC	-6.13
in CCCCCCC	-6.22
in CCCCCCCC	-6.34
in CCCCCCCCCC	-6.64
in Cc1cccc(C)c1	-7.32
in Cc1ccccc1C	-7.39
in O	-5.55

Cc1cccnc1
Settings	solvation free energy, 298 K [kcal/mol]
in CC(C)(C)O	-5.83
in CC(C)CC(C)(C)C	-4.97
in CCCCO	-6.41
in CCCO	-6.34
in O	-4.8

CCNc1nc(NC(C)C)nc(OC)n1
Settings	solvation free energy, 298 K [kcal/mol]
in O	-10.2

Clc1cc(Cl)cc(-c2cc(Cl)ccc2Cl)c1
Settings	solvation free energy, 298 K [kcal/mol]
in O	-2.73

O=C(O)Cc1ccc(C(=O)O)cc1
Settings	solvation free energy, 298 K [kcal/mol]
in C=CCCCCCCCCCCCCCC	-10.5
in O	-16.5

CCC(=O)CC(=O)CC
Settings	solvation free energy, 298 K [kcal/mol]
in O	-4.71

Oc1ccc(Br)cc1Br
Settings	solvation free energy, 298 K [kcal/mol]
in O	-5.69

CC(Cl)CCl (stereo unspecified)
Settings	solvation free energy, 298 K [kcal/mol]
in CCCCCC	-4.17
in CCCCCCCCO	-4.03
in ClC(Cl)(Cl)Cl	-4.65

Nc1ccccc1[N+](=O)[O-]
Settings	solvation free energy, 298 K [kcal/mol]
in CC(C)CC(C)(C)C	-7.5
in CCCCCC	-7.51
in O	-7.43

CCCCOCC
Settings	solvation free energy, 298 K [kcal/mol]
in CC(C)CCl	-4.73
in CCC(C)Cl	-4.73
in CCCCCl	-4.77
in ClC(Cl)(Cl)Cl	-4.91

ClC=C(Cl)Cl
Settings	solvation free energy, 298 K [kcal/mol]
in C1COCCO1	-4.91
in CC(=O)N(C)C	-4.8
in CCCCCCCCC=CCCCCCCCC(=O)OCC(COC(=O)CCCCCCCC=CCCCCCCCC)OC(=O)CCCCCCCC=CCCCCCCCC	-4.37
in CCCCCCCCCC	-3.84
in CCCCCCCCO	-4.09
in CCCCN(C=O)CCCC	-4.62
in CNC(C)=O	-4.35
in O	-0.46
